Measurements from patent US12357581B2, “Nanoparticles comprising copolymeric or homopolymeric compounds which comprise cyanoacrylate subunits” (SINTEF TTO AS, priority 2019, dated 2025).
Entries after “also recorded” stand apart in the source; their conditions may differ.

Key:
[1] = test system: IMR-90; assay: Alcohol toxicity, MTT cell viability assay, IMR-90; format: cell-based, human; settings: 24 h, vs untreated control
Description: (§1) MTT cell viability assay.
(§2) Alcohol toxicity is disclosed in Table 3: Alcohol toxicity was assessed by exposure of the cells to a given concentration of alcohol to a limit of 3 wt %. Cell activity was determined after 24 h and compared to an untreated control. Data is reported as percentage remaining cell activity (vs control) in 3% alcohol in three individual cell lines. The greater the percentage of remaining activity, the lower the toxicity of the alcohol to the cell line. Thus, Hep G2 cells exposed to 3 wt % 2-ethylhexanol retained 91.2% activity, whereas Hep G2 cells exposed to 3 wt % 2-ethylbutanol retained only 74.6% activity. Thus 2-ethylhexanol is less toxic to Hep G2 cells than 2-ethylbutanol.

[2] = test system: Hep G2; assay: Alcohol toxicity, MTT cell viability assay, Hep G2; format: cell-based, human; settings: 24 h, vs untreated control
Description: as §1, §2

[3] = test system: LLC-PK1; assay: Alcohol toxicity, MTT cell viability assay, LLC-PK1; format: cell-based, porcine; settings: 24 h, vs untreated control
Description: as §1, §2

[4] = Solubility of API/dyes with ACA monomers (visual); format: physicochemical; settings: typically 5.0 mg in 100 ul monomer, 24 h; for Solubility of CBZ in the monomer (blend): cabazitaxel
Text: Solubility and degree of polymerization were monitored visually.
Where the result is given as ‘soluble’, the API was soluble in the choose monomer with no visual residue, and there can be used as a combination to prepare API loaded nanoparticles. If the results are given as insoluble or partially, it is an indication that this combination cannot be used to prepared API loaded nanoparticles.

[5] = test system: Hep G2 cell line and LLC-PK1
Description: Cell lines: The cell lines were used for determining alcohol cytotoxicity Hep G2 (Human liver cancer cell line), LLC-PK1 (Porcine kidney cell line) and IMR-90 (Human lung fibroblast cell line). All medium was fortified with 10% (w/v) fetal calf serum albumin (Sigma) and 100 units/ml penicillin/streptomycin (PenStrep®, Sigma). All cell lines were obtained from ATCC and were routinely tested for mycoplasma. Cells growing in 24- or 96-well plates were incubated with serial dilutions of the alcohol for 24 h, at 37° C. in an atmosphere of 5% CO2. The toxicity was assessed the commonly used MTT (3-(4,5-dimethylthiazol-2-yl)-2,5-diphenyltetrazolium bromide) cell viability assay.
MTT cell viability assay. The cells were incubated for 24 with the different nanoparticles/substances. The cell medium was then aspirated and exchanged with 100 μl of medium containing a final concentration of 250 μg MTT/ml. The incubation was continued for 3 h at 37° C. for formation of the formazan-particles, which were dissolved in DMSO with 1% (v/v) NH4Cl. The absorbance was read in a plate reader (Biosys Ltd, Essex, UK) at 570 nm, and background from absorbance at 650 nm was subtracted.

1-butanol [1-butanol (control), reference compound]
Cell activity remaining at 3.00 wt % alcohol (%), IMR-90 [1]: 59.7% | Cell activity remaining at 3.00 wt % alcohol (%), Hep G2 [2]: 61.8% | Cell activity remaining at 3.00 wt % alcohol (%), LLC-PK1 [3]: 81.8%

C=C(C#N)C(=O)OCCCCCCC [1-HPCA, 1-heptyl cyanoacrylate]
Solubility of CBZ in the monomer (blend) [4]: Soluble | Solubility of Alpelisib in the monomer (blend) [4]: Soluble | Solubility of Belinostat in the monomer (blend) [4]: Soluble | Solubility of Docetaxil in the monomer (blend) [4]: Soluble | Solubility of Mupirocin in the monomer (blend) [4]: Insoluble | Solubility of Oxaliplatin in the monomer (blend) [4]: Insoluble

C=C(C#N)C(=O)OCCCCC [1-PCA, 1-pentyl cyanoacrylate]
Solubility of CBZ in the monomer (blend) [4]: Soluble | Solubility of Alpelisib in the monomer (blend) [4]: Soluble | Solubility of Mupirocin in the monomer (blend) [4]: Insoluble | Solubility of Oxaliplatin in the monomer (blend) [4]: Insoluble

CCCCCCCO [1-heptanol]
Cell activity remaining at 3.00 wt % alcohol (%), IMR-90 [1]: 58.3% | Cell activity remaining at 3.00 wt % alcohol (%), Hep G2 [2]: 72.3% | Cell activity remaining at 3.00 wt % alcohol (%), LLC-PK1 [3]: 61.8%

CCCCCCCCO [1-octanol (control), 1-octanol, reference compound]
Cell activity remaining at 3.00 wt % alcohol (%), IMR-90 [1]: 0.9% | Cell activity remaining at 3.00 wt % alcohol (%), Hep G2 [2]: 69.8% | Cell activity remaining at 3.00 wt % alcohol (%), LLC-PK1 [3]: 1.8%

CCCCCO [1-pentanol]
Cell activity remaining at 3.00 wt % alcohol (%), IMR-90 [1]: 57.1% | Cell activity remaining at 3.00 wt % alcohol (%), Hep G2 [2]: 63.3% | Cell activity remaining at 3.00 wt % alcohol (%), LLC-PK1 [3]: 83.4%

C=C(C#N)C(=O)OC(C)CCCCC (stereo not drawn) [2-HPCA, 2-heptyl cyanoacrylate]
Solubility of CBZ in the monomer (blend) [4]: Soluble | Solubility of Alpelisib in the monomer (blend) [4]: Soluble | Solubility of Mupirocin in the monomer (blend) [4]: Soluble; also recorded: able to dissolve | Solubility of Oxaliplatin in the monomer (blend) [4]: Insoluble

C=C(C#N)C(=O)OCCc1ccccc1 [2-PECA, 2-phenylethyl cyanoacrylate]
Solubility of CBZ in the monomer (blend) [4]: dissolves | Solubility of Alpelisib in the monomer (blend) [4]: dissolves | Solubility of Oxaliplatin in the monomer (blend) [4]: dissolves

CCC(CC)CO [2-ethylbutanol (control), 2-ethylbutanol, reference compound]
Cell activity remaining at 3.00 wt % alcohol (%), IMR-90 [1]: 69.1% | Cell activity remaining at 3.00 wt % alcohol (%), Hep G2 [2]: 74.6% | Cell activity remaining at 3.00 wt % alcohol (%), LLC-PK1 [3]: 86.2%

CCCCC(CC)CO (stereo not drawn) [2-ethylhexanol]
Cell activity remaining at 3.00 wt % alcohol (%), IMR-90 [1]: 7.9% | Cell activity remaining at 3.00 wt % alcohol (%), Hep G2 [2]: 91.2% | Cell activity remaining at 3.00 wt % alcohol (%), LLC-PK1 [3]: 79.8%

CCCCCC(C)O (stereo not drawn) [2-heptanol]
Cell activity remaining at 3.00 wt % alcohol (%), IMR-90 [1]: 50.7% | Cell activity remaining at 3.00 wt % alcohol (%), Hep G2 [2]: 73.9% | Cell activity remaining at 3.00 wt % alcohol (%), LLC-PK1 [3]: 81.1%

OCCc1ccccc1 [2-phenylethanol]
Cell activity remaining at 3.00 wt % alcohol (%), IMR-90 [1]: 0.6% | Cell activity remaining at 3.00 wt % alcohol (%), Hep G2 [2]: 0.9% | Cell activity remaining at 3.00 wt % alcohol (%), LLC-PK1 [3]: 1.1% | Toxicity at 3% alcohol [5]: significant toxicity

C=C(C#N)C(=O)OCCC(C)(C)C [3,3-DMBCA, 3,3-dimethyl-1 butyl cyanoacrylate]
Solubility of CBZ in the monomer (blend) [4]: Soluble | Solubility of Alpelisib in the monomer (blend) [4]: Soluble | Solubility of Mupirocin in the monomer (blend) [4]: Insoluble | Solubility of Oxaliplatin in the monomer (blend) [4]: Insoluble

CC(C)(C)CCO [3,3-dimethylbutanol]
Cell activity remaining at 3.00 wt % alcohol (%), IMR-90 [1]: 81.7% | Cell activity remaining at 3.00 wt % alcohol (%), Hep G2 [2]: 84.8% | Cell activity remaining at 3.00 wt % alcohol (%), LLC-PK1 [3]: 98.2%

C=C(C#N)C(=O)OC(CC)CCCC (stereo not drawn) [3-HPCA, 3-heptyl cyanoacrylate]
Solubility of CBZ in the monomer (blend) [4]: Soluble | Solubility of Alpelisib in the monomer (blend) [4]: Soluble | Solubility of Mupirocin in the monomer (blend) [4]: Partially | Solubility of Oxaliplatin in the monomer (blend) [4]: Insoluble

C=C(C#N)C(=O)OCCC(C)C [3-MBCA, 3-methylbutyl cyanoacrylate]
Solubility of CBZ in the monomer (blend) [4]: Soluble | Solubility of Alpelisib in the monomer (blend) [4]: Soluble | Solubility of Mupirocin in the monomer (blend) [4]: Insoluble | Solubility of Oxaliplatin in the monomer (blend) [4]: Insoluble

C=C(C#N)C(=O)OC(CC)CC [3-PCA, 3-pentyl cyanoacrylate]
Solubility of CBZ in the monomer (blend) [4]: Soluble | Solubility of Alpelisib in the monomer (blend) [4]: Soluble | Solubility of Mupirocin in the monomer (blend) [4]: Soluble; also recorded: able to dissolve | Solubility of Oxaliplatin in the monomer (blend) [4]: Insoluble

CCCCC(O)CC (stereo not drawn) [3-heptanol]
Cell activity remaining at 3.00 wt % alcohol (%), IMR-90 [1]: 81.7% | Cell activity remaining at 3.00 wt % alcohol (%), Hep G2 [2]: 81.4% | Cell activity remaining at 3.00 wt % alcohol (%), LLC-PK1 [3]: 96.4%

CC(C)CCO [3-methylbutanol]
Cell activity remaining at 3.00 wt % alcohol (%), IMR-90 [1]: 67.6% | Cell activity remaining at 3.00 wt % alcohol (%), Hep G2 [2]: 72.4% | Cell activity remaining at 3.00 wt % alcohol (%), LLC-PK1 [3]: 94.3%

CCC(O)CC [3-pentanol]
Cell activity remaining at 3.00 wt % alcohol (%), IMR-90 [1]: 84.6% | Cell activity remaining at 3.00 wt % alcohol (%), Hep G2 [2]: 89.7% | Cell activity remaining at 3.00 wt % alcohol (%), LLC-PK1 [3]: 78.6%

C=C(C#N)C(=O)OCC(CC)CC [EBCA (control), 2-ethylbutyl cyanoacrylate, reference compound]
Solubility of Belinostat in the monomer (blend) [4]: not

C=C(C#N)C(=O)OCCCCCCCC [OCA (control), 1-octyl cyanoacrylate, reference compound]
Solubility of Mupirocin in the monomer (blend) [4]: insoluble
